From publication PMC5987880 (The Journal of General Physiology, 2018)
Several values for one entry are separate records, joined by “and”; a condition that tells them apart may be missing. Equal values may be shown once.

Experiments:
SthK [1] = target: T1, SthK (Spirochaeta thermophila, UniProt G0GA88); experiment: Single-channel recordings of purified SthK in horizontal lipid bilayers; assay type: biochemical
T1 sequence (G0GA88 1-420): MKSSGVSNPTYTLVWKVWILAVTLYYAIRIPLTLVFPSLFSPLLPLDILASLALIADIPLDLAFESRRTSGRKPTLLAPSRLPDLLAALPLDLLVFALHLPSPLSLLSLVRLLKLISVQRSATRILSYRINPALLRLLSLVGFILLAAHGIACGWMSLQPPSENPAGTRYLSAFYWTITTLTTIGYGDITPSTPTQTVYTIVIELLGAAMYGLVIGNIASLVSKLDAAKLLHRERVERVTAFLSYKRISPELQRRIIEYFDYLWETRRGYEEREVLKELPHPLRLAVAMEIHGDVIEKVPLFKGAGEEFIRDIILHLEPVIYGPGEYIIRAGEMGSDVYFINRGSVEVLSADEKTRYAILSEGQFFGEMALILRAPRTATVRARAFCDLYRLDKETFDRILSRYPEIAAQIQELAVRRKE

SthK [2] = target: T1, SthK; details: at 100 mV; ref Brams et al. (2014); cited from earlier work
SthK [3] = target: T1, SthK; experiment: 86Rb+ flux; assay type: biochemical; details: 200 µM cyclic nucleotide, 5:3:2 DOPC:POPG:cardiolipin liposomes
SthK [4] = target: T1, SthK; experiment: Sequential-mixing stopped-flow fluorescence Tl+ flux assay with SthK liposomes; assay type: biochemical
HCN4 = details: read-out: Kd for HCN4; ref Akimoto et al., 2014; cited from earlier work
isolated CNBD of MloK1 = details: read-out: Kd for isolated CNBD of MloK1; ref Cukkemane et al., 2007; cited from earlier work
[5] = target: SthK, cyclic nucleotide-gated (CNG) channel from Spirochaeta thermophila, final expression construct SthK_(Δ421–430) (Spirochaeta thermophila); experiment: cross-linking

Nc1ncnc2c1ncn2[C@@H]1O[C@@H]2COP(=O)(O)O[C@H]2[C@H]1O [cAMP, cyclic adenosine monophosphate]
Open probability Po at 0 mV (SthK [1]; cAMP alone, 0 mV): ≈ 0.1 | Hill coefficient nH, bilayer recordings (SthK [1]; open probability at 100 mV (Eq. 10)): 3 | Open probability Po in oocytes (SthK [2]): ≈ 0.14 | 86Rb+ uptake through SthK liposomes (SthK [3]): robust cAMP-dependent activity | Time to maximum activation of SthK (SthK [4]; 200 µM cAMP): 2 s and 1 to 2 s | Activation time constant τ1 (SthK [4]; 200 µM cAMP, delay 0.015-10 s, sum of two exponentials (amplitude 0.45)): ≈ 0.05 s | Activation time constant τ2 (SthK [4]; 200 µM cAMP, delay 0.015-10 s, sum of two exponentials (amplitude 0.55)): ≈ 1.04 s | Slow activation phase (as stated in the Discussion) (SthK [4]; activation kinetics of SthK): ~2 s

Nc1nc2c(ncn2[C@@H]2O[C@@H]3COP(=O)(O)O[C@H]3[C@H]2O)c(=O)[nH]1 [cGMP, cyclic guanosine monophosphate]
Open probability Po with cGMP (SthK [1]; cGMP alone): < 0.003

Nc1ncnc2c1nc(SCCNc1ccc([N+](=O)[O-])c3nonc13)n2[C@@H]1O[C@@H]2COP(=O)(O)O[C@H]2[C@H]1O [fcAMP, 8-NBD-cAMP]
Kd (HCN4): 5 µM | Kd (isolated CNBD of MloK1): ~15.9 nM

SthK, cyclic nucleotide-gated (CNG) channel from Spirochaeta thermophila, final expression construct SthK_(Δ421–430) (natural protein)
stoichiometry N [5]: 4
